Test results taken from patent EP4745130A1, “CRYSTAL FORMS OF TUBULIN-SRC DUAL-TARGETING INHIBITOR, PREPARATION METHOD THEREFOR AND USE THEREOF” (Hubei Bio-Pharmaceutical Industrial Technological Institute …, priority 2023, dated 2025).

How the values were obtained:
tubulin = target: T1, tubulin (Sus scrofa, UniProt P02550+P02554); assay: Inhibition test of tubulin monomer polymerization (Tubulin polymerization assay kit, fluorescence); assay type: biochemical
T1 construct: purchased cytoskeleton BK011P
T1 sequence (P02550 whole entry): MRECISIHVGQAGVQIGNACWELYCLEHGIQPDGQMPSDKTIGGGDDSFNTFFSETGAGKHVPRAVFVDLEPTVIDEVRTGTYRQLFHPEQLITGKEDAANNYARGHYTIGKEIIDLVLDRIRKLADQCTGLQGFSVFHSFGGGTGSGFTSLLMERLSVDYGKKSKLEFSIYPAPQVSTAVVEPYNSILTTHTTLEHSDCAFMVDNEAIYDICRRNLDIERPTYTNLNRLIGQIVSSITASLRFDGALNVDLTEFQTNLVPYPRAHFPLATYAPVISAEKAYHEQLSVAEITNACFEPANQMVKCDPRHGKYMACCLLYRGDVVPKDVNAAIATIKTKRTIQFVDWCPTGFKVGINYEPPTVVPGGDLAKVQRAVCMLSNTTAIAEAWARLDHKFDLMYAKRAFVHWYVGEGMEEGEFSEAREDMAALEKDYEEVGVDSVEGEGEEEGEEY
T1 sequence (P02554 whole entry): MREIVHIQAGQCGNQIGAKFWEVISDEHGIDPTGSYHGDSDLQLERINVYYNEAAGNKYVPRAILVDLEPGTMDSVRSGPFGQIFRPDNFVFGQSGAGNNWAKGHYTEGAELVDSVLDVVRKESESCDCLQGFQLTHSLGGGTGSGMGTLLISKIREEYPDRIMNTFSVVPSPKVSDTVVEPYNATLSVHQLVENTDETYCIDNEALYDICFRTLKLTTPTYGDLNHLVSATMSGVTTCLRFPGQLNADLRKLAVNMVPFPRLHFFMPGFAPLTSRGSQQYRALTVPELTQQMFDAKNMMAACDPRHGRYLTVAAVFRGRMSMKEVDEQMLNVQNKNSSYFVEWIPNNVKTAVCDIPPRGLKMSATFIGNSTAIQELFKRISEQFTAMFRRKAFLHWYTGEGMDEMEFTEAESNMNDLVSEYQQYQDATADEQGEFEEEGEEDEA
Protocol: Tubulin polymerization assay kit (cytoskeleton, Cat. # BK011P) was used to conduct the compound inhibition test of tubulin monomer polymerization.
Before the test, the 96-well plate (Corning Costar, Cat. # 3686) supplied with the kit was first placed in a microplate reader (MD, SpectraMax M5) and heated to 37°C, maintained for 10 minutes. The 96-well plate was then removed, and 5 µL of 12.5 µM compound solution or blank solution was added thereto. The 96-well plate was then placed back into the microplate reader and incubated at 37°C for 1 minute to heat the compound solution to 37°C. The 96-well plate was removed and 50 µL of reaction mixture prepared according to the supplier's instructions was quickly added to each well, completing the sample addition within 1 minute to avoid the formation of bubbles. The 96-well plate was then immediately placed back into the microplate reader, shaken for 5 seconds, and using the Kinetic mode, continuous detection was carried out at 37°C for 30 to 60 minutes under the conditions of excitation light at 360 nm and emission light at 420 nm, with detection every 30 seconds. Taking the detection time as the X-axis and the fluorescence signal value as the Y-axis, the tubulin monomer polymerization curve was obtained. As shown in FIG. 66 and Table 40, the larger the Vmax value and the higher the maximum fluorescence signal value of the polymerization curve, the lower the inhibitory efficiency of the compound.

[1] = Human liver microsome stability test; assay type: in vitro ADME
Protocol: The human liver microsome stability test was performed by incubating the compound and human liver microsomes in vitro. First, the compound to be tested was prepared into a 10 mM stock solution in DMSO solvent, and then the compound was diluted to 0.5 mM with acetonitrile. Human liver microsomes (Corning) were diluted with PBS into a microsome/buffer solution, and the solution was used to dilute 0.5 mM compound into a working solution, in which the concentration of the compound was 1.5 µM, and the concentration of human liver microsomes was 0.75 mg/mL. A deep-well plate was taken, 30 µL of the working solution was added per well, and then 15 µL of pre-heated 6 mM NADPH solution was added thereto to initiate a reaction, and the reaction was incubated at 37°C. At 0, 5, 15, 30 and 45 min of the incubation, 135 µL of acetonitrile was added to the corresponding wells to terminate the reaction. After the reaction was terminated with acetonitrile at the last time point of 45 min, the deep-well plate was vortexed and shaken for 10 min (600 rpm), and then centrifuged for 15 min. After centrifugation, the supernatant was collected, and added with purified water in a ratio of 1:1 to perform LC-MS/MS detection. A ratio of a peak area of compound to a peak area of internal standard at each time point was obtained, and the peak area ratios of the compound at 5, 15, 30 and 45 min were compared with the peak area ratio at 0 min to calculate the remaining percentage of the compound at each time point. T1/2 was calculated by using GraphPad 5 software. Table 45: Results of human liver microsome stability test

p-SRC = assay: Inhibition of Src signaling pathway (Western Blot of p-SRC in A-431 cells); assay type: cell-based, Human
Protocol: The Western Blot method was used to detect the compound's inhibition of p-SRC in A-431 skin cancer cells (ATCC, CRL-1555) to evaluate the inhibitory effect of the compound on the SRC signaling pathway.
A-431 cells were cultured in DMEM medium containing 10% fetal bovine serum and grown at 37°C in a 5% CO2 incubator. 500,000 cells/well were seeded in a 12-well cell culture plate and cultured overnight at 37°C in a 5% CO2 incubator. The next day, the culture medium was replaced and different concentrations of the compound were added, with DMSO serving as a control. After the addition of the compounds, the culture plate was cultured for another 24 hours at 37°C in a 5% CO2 incubator. The cells were washed once with PBS, and lysed with RIPA lysis buffer (R0010, Solarbio) at low temperature for 30 minutes. Afterwards, the protein lysate was collected into a centrifuge tube, centrifuged at 14,000 g at 4°C for 10 minutes, and the supernatant was transferred to a new tube. The BCA protein concentration assay kit (P0009, Beyotime Biotechnology) was used to detect and calculate the protein concentration. A 5× protein loading buffer was used to quantify the protein of each sample consistently. The samples were boiled at 100°C for 5 minutes, and subjected to western blot to detect the level of p-SRC. […]

[2] = tested on: Human cutaneous squamous cell carcinoma cell A-431; assay: Cell proliferation inhibition test, A-431; assay type: cell-based; settings: A-431, 96 h, 4 days incubation
Protocol: (§1) Human cutaneous squamous cell carcinoma cell A-431 (ATCC, CRL-1555) and actinic keratosis patient-derived cell HT 297.T (ATCC, CRL-7782) proliferation assays were used to detect the inhibitory effect of small molecular compounds on cell proliferation.
A-431 cells and HT 297.T cells were cultured in DMEM medium containing 10% fetal bovine serum and grown at 37°C in a 5% CO2 incubator. Cells on logarithmic phase were seeded into a 96-well cell culture plate at 1000 cells/well, 100 µL per well, and then cultured overnight at 37°C in a 5% CO2 incubator. The next day, 100 µL of gradient-diluted 2× test compound solution was added to each well, with DMSO serving as a positive control, and 10 µM staurosporine (Aladdin, S102392) was set as a negative control group. After the addition of the compounds, the culture plate was incubated for another 4 days at 37°C in a 5% CO2 incubator. After incubation, the Steady-Glo® luciferase assay system (Promega, G9243) was used according to the supplier's instructions to measure the fluorescence signal value on the Envision 2104 Multilabel Reader. The inhibition rate was calculated by the following formula, then the curve was plotted with the Log value of the inhibitor concentration as the X-axis and the inhibition rate as the Y-axis, and the IC50 was calculated using Graphpad 8.0. [formula] […]

[3] = tested on: actinic keratosis patient-derived cell HT 297.T; assay: Cell proliferation inhibition test, HT 297.T; assay type: cell-based, Human
Protocol: as §1
A-431 cells and HT 297.T cells were cultured in DMEM medium containing 10% fetal bovine serum and grown at 37°C in a 5% CO2 incubator. Cells on logarithmic phase were seeded into a 96-well cell culture plate at 1000 cells/well, 100 µL per well, and then cultured overnight at 37°C in a 5% CO2 incubator. The next day, 100 µL of gradient-diluted 2× test compound solution was added to each well, with DMSO serving as a positive control, and 10 µM staurosporine (Aladdin, S102392) was set as a negative control group. After the addition of the compounds, the culture plate was incubated for another 4 days at 37°C in a 5% CO2 incubator. After incubation, the Steady-Glo® luciferase assay system (Promega, G9243) was used according to the supplier's instructions to measure the fluorescence signal value on the Envision 2104 Multilabel Reader. The inhibition rate was calculated by the following formula, then the curve was plotted with the Log value of the inhibitor concentration as the X-axis and the inhibition rate as the Y-axis, and the IC50 was calculated using Graphpad 8.0. [formula] Table 41: Inhibition results of test compounds on proliferation activity of A-431 and HT 297.T cells

Cc1cc(OCCN2C[C@H]3COC[C@H]3C2)ccc1-c1ccc(CC(=O)NCc2ccccc2)nc1 [Compound of Formula I, N-benzyl-2-(5-(2-methyl-4-(2-((3aR,6aS)-tetrahydro-1H-furo[3,4-c]pyrrol-5(3H)-yl)ethoxy)phenyl)pyridin-2-yl)acetamide]
Maximum signal value (tubulin; 5 µL of 12.5 µM compound solution, fluorescence ex 360 nm / em 420 nm, 37°C, larger value = lower inhibitory efficiency): 478
Vmax value and maximum fluorescence signal value of the polymerization curve (tubulin; in words): significantly smaller
half-life at 1 µM ([1]; human liver microsomes, NADPH, 37°C, 0-45 min): 17.2 min
metabolism by human liver microsomes ([1]; in words): metabolized quickly
phosphorylation of SRC (p-SRC; 80 nM, A-431 cells, 24 hours): significantly inhibit the phosphorylation of SRC
p-SRC inhibitory activity (p-SRC; in words, compared with the control compound): better p-SRC inhibitory activity compared with the control compound
IC50 [2]: 0.0226 µM
IC50 ([3]; Homo sapiens, 96 h, 4 days incubation): 0.0413 µM
inhibitory effect on HT 297.T cells ([3]; in words, versus control compound): significantly better than that of the control compound
